Where two headings read alike, the source gives them in different places. Where only a bound is given, the exact number is not on record here.

This experiment deals with NLRP3. The experiment can be described thus: IL-1β secretion assay in PMA-differentiated, LPS/nigericin-stimulated THP-1 cells (384-well, ELISA read-out). In kind it is cell-based, human. The note with it: Homo sapiens. In a few lines:
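Secreted IL-1β quantified by capture ELISA from supernatants of PMA-differentiated THP-1 cells (30K per well). Sequence: LPS 25 ng/mL priming 2 h, compound 1 h, nigericin 2 h; dose-responses normalized between high (LPS plus 5 μM nigericin) and low (LPS alone) controls.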

Setting [1] is: THP-1, IL-1β secretion, PMA-differentiated THP-1 cells, LPS then nigericin stimulation, ELISA read at 450 nm, read-out: Activity.
The mark [2] stands for this setting: THP-1, Table 4, IL-1β secretion, LPS/nigericin-stimulated THP-1 cells, read-out: IC50.

On to `O=C(CN1C[C@]2(C[C@H]2F)c2cc(C3CC3)ccc2C1=O)Nc1ncc(Cl)cn1` [Example 232], for which the IC50 reads like this: under setting [1], below 10000 nM; under setting [2], 28 nM. Turning to `N#Cc1cnc(NC(=O)CN2C[C@]3(C[C@H]3F)c3cc(C4CC4)ccc3C2=O)nc1` [Example 233], the IC50 is below 10000 nM under setting [1] and 45 nM under setting [2]. The matching figures for `O=C(CN1C[C@]2(C[C@H]2F)c2cc(I)ccc2C1=O)Nc1ncc(F)cn1` [Example 246]: below 10000 nM and 6 nM. The matching figures for `O=C(CN1C[C@]2(C[C@H]2F)c2cc(I)ccc2C1=O)Nc1ncccn1` [Example 247]: below 10000 nM and 10 nM. The matching figures for `O=C(CN1C[C@]2(C[C@H]2F)c2cc(C3(F)CC3)ccc2C1=O)Nc1ncc(F)cn1` [Example 249]: below 10000 nM and 15 nM. On to `O=C(CN1C[C@]2(C[C@H]2F)c2cc(C3(F)CC3)ccc2C1=O)Nc1ncc(Cl)cn1` [Example 250], for which the IC50 was below 10000 nM under setting [1] and 14 nM under setting [2]. Take `O=C(CN1CC2(CC2)c2cc(C3(F)CC3)ccc2C1=O)Nc1ncc(F)cn1` [Example 255, 2-[6-(1-fluorocyclopropyl)-1-oxospiro[3H-isoquinoline-4,1′-cyclopropane]-2-yl]-N-(5-fluoropyrimidin-2-yl)acetamide]: the IC50 was below 10000 nM under setting [1] and 148 nM under setting [2]. The matching figures for `O=C(CN1CC2(CC2)c2cc(Br)ccc2C1=O)Nc1ncc(C2CCC2)cn1` [Example 256, 2-(6-bromo-1-oxospiro[3H-isoquinoline-4,1′-cyclopropane]-2-yl)-N-(5-cyclobutylpyrimidin-2-yl)acetamide]: below 10000 nM and 395 nM. The matching figures for `Cn1cc(-c2cnc(NC(=O)CN3CC4(CC4)c4cc(Br)ccc4C3=O)nc2)cn1` [Example 257, 2-(6-bromo-1-oxospiro[3H-isoquinoline-4,1′-cyclopropane]-2-yl)-N-[5-(1-methylpyrazol-4-yl)pyrimidin-2-yl]acetamide]: below 10000 nM and 392 nM.

Take `O=C(CN1CC2(CC2)c2cc(Br)ccc2C1=O)Nc1ncc(C2CCOC2)cn1` (stereo not shown) [Example 258, 2-(6-bromo-1-oxospiro[3H-isoquinoline-4,1′-cyclopropane]-2-yl)-N-[5-(oxolan-3-yl)pyrimidin-2-yl]acetamide]: the IC50 is below 10000 nM under setting [1] and 526 nM under setting [2].

As to `Cc1nc(NC(=O)CN2CC3(CC3)c3cc(Br)ccc3C2=O)ncc1C#N` [Example 259, 2-(6-bromo-1-oxospiro[3H-isoquinoline-4,1′-cyclopropane]-2-yl)-N-(5-cyano-4-methylpyrimidin-2-yl)acetamide], the IC50 was below 10000 nM under setting [1] and 437 nM under setting [2]. Regarding `O=C(CN1CC2(CC2)c2cc(Br)ccc2C1=O)Nc1nc2cnccn2n1` [Example 260, 2-(6-bromo-1-oxospiro[3H-isoquinoline-4,1′-cyclopropane]-2-yl)-N-([1,2,4]triazolo[1,5-a]pyrazin-2-yl)acetamide], the IC50 is below 10000 nM under setting [1] and 205 nM under setting [2].

Consider `O=C(CN1CC2(CC2)c2cc(Br)ccc2C1=O)Nc1nc2cc(Cl)ccn2n1` [Example 261, 2-(6-bromo-1-oxospiro[3H-isoquinoline-4,1′-cyclopropane]-2-yl)-N-(7-chloro-[1,2,4]triazolo[1,5-a]pyridin-2-yl)acetamide], for which the IC50 by setting is: under setting [1], below 10000 nM; under setting [2], 224 nM.

Turning to `COc1ccc2nc(NC(=O)CN3CC4(CC4)c4cc(Br)ccc4C3=O)nn2c1` [Example 262, 2-(6-bromo-1-oxospiro[3H-isoquinoline-4,1′-cyclopropane]-2-yl)-N-(6-methoxy-[1,2,4]triazolo[1,5-a]pyridin-2-yl)acetamide], the IC50 runs as follows: under setting [1], below 10000 nM; under setting [2], 253 nM. The matching figures for `O=C(CN1CC2(CC2)c2cc(Br)ccc2C1=O)Nc1nc2ccc(F)cn2n1` [Example 263, 2-(6-bromo-1-oxospiro[3H-isoquinoline-4,1′-cyclopropane]-2-yl)-N-(6-fluoro-[1,2,4]triazolo[1,5-a]pyridin-2-yl)acetamide]: below 10000 nM and 281 nM. Take `O=C(CN1CC2(CC2)c2cc(Br)ccc2C1=O)Nc1nc2ccc(Cl)cn2n1` [Example 264, 2-(6-bromo-1-oxospiro[3H-isoquinoline-4,1′-cyclopropane]-2-yl)-N-(6-chloro-[1,2,4]triazolo[1,5-a]pyridin-2-yl)acetamide]: the IC50 is, setting by setting: under setting [1], below 10000 nM; under setting [2], 312 nM. For the compound `O=C(CN1CC2(CC2)c2cc(Br)ccc2C1=O)Nc1nc2cc(C(F)(F)F)ccn2n1` [Example 265, 2-(6-bromo-1-oxospiro[3H-isoquinoline-4,1′-cyclopropane]-2-yl)-N-[7-(trifluoromethyl)-[1,2,4]triazolo[1,5-a]pyridin-2-yl]acetamide], the IC50 by setting is: under setting [1], below 10000 nM; under setting [2], 335 nM. The matching figures for `O=C(CN1CC2(CC2)c2cc(Br)ccc2C1=O)Nc1nc2ccc(F)cc2o1` [Example 267, 2-(6-bromo-1-oxospiro[3H-isoquinoline-4,1′-cyclopropane]-2-yl)-N-(6-fluoro-1,3-benzoxazol-2-yl)acetamide]: below 10000 nM and 359 nM. The matching figures for `O=C(CN1CC2(CC2)c2cc(Br)ccc2C1=O)N[C@@H]1CCCN(C2CC2)C1` [Example 268, 2-(6-bromo-1-oxospiro[3H-isoquinoline-4,1′-cyclopropane]-2-yl)-N-[(3R)-1-cyclopropylpiperidin-3-yl]acetamide]: below 10000 nM and 192 nM. The matching figures for `O=C(CN1CC2(CC2)c2cc(Br)ccc2C1=O)Nc1ncc(I)cn1` [Example 269, 2-(6-bromo-1-oxospiro[3H-isoquinoline-4,1′-cyclopropane]-2-yl)-N-(5-iodopyrimidin-2-yl)acetamide]: below 10000 nM and 87 nM.

In the case of `O=C(CN1CC2(CC2)c2cc(Br)ccc2C1=O)Nc1ncc(OC(F)F)cn1` [Example 270, 2-(6-bromo-1-oxospiro[3H-isoquinoline-4,1′-cyclopropane]-2-yl)-N-[5-(difluoromethoxy)pyrimidin-2-yl]acetamide], the IC50 is, setting by setting: under setting [1], below 10000 nM; under setting [2], 286 nM. Turning to `O=C(CN1C[C@]2(C[C@H]2F)c2cc(Br)ccc2C1=O)Nc1nc2ccccn2n1` [Example 271], the IC50 under setting [1] was below 10000 nM and the IC50 under setting [2] was found to be 29 nM.

For the compound `N#Cc1cnc(NC(=O)CN2C[C@]3(C[C@H]3F)c3cc(Br)ccc3C2=O)nc1` [Example 272], the IC50 is below 10000 nM under setting [1] and 14 nM under setting [2]. The matching figures for `C=C(F)c1ccc2c(c1)[C@@]1(C[C@H]1F)CN(CC(=O)Nc1ncc(F)cn1)C2=O` [Example 273]: below 10000 nM and 59 nM. The matching figures for `Cc1cnc(NC(=O)CN2C[C@]3(C[C@H]3F)c3cc(Br)ccc3C2=O)nc1` [Example 274]: below 10000 nM and 23 nM. The matching figures for `N#Cc1cnc(NC(=O)CN2C[C@]3(C[C@H]3F)c3cc(Br)ccc3C2=O)c(F)c1` [Example 275, 2-[(2′r,4s)-6-bromo-2′-fluoro-1-oxospiro[3H-isoquinoline-4,1′-cyclopropane]-2-yl]-N-(5-cyano-3-fluoropyridin-2-yl)acetamide]: below 10000 nM and 70 nM. As for `O=C(CN1C[C@]2(C[C@H]2F)c2cc(Cl)ccc2C1=O)Nc1ncc(F)cn1` [Example 276], the IC50 is below 10000 nM under setting [1] and 79 nM under setting [2]. The matching figures for `C[C@@H](F)[C@H]1CN(CC(=O)Nc2ncc(F)cn2)C(=O)c2ccc(Br)cc21` [Example 294, 2-[(4r)-6-bromo-4-[(1r)-1-fluoroethyl]-1-oxo-3,4-dihydroisoquinolin-2-yl]-N-(5-fluoropyrimidin-2-yl)acetamide]: below 10000 nM and 203 nM. The matching figures for `O=C(CN1CC(C(F)(F)F)c2cc(I)ccc2C1=O)Nc1ncc(F)cn1` (stereo not shown) [Example 301, N-(5-fluoropyrimidin-2-yl)-2-[6-iodo-1-oxo-4-(trifluoromethyl)-3,4-dihydroisoquinolin-2-yl]acetamide]: below 10000 nM and 27 nM. The matching figures for `C#Cc1ccc2c(c1F)C1(CC1)CN(CC(=O)Nc1ncc(F)cn1)C2=O` [Example 302, 2-(6-ethynyl-5-fluoro-1-oxospiro[3H-isoquinoline-4,1′-cyclopropane]-2-yl)-N-(5-fluoropyrimidin-2-yl)acetamide]: below 10000 nM and 539 nM.

For `O=C(CN1CC2(CC2)c2c(ccc(C3(F)CC3)c2F)C1=O)Nc1ncc(F)cn1` [Example 307, 2-[5-fluoro-6-(1-fluorocyclopropyl)-1-oxospiro[3H-isoquinoline-4,1′-cyclopropane]-2-yl]-N-(5-fluoropyrimidin-2-yl)acetamide], the IC50 under setting [2] was found to be 898 nM. Same read-out and setting: then `O=C(CN1C[C@]2(C[C@H]2F)c2cc(Br)ccc2C1=O)Nc1ncc(C(F)(F)F)cn1` [Example 308, 2-[(2′R,4S)-6-bromo-2′-fluoro-1-oxospiro[3H-isoquinoline-4,1′-cyclopropane]-2-yl]-N-[5-(trifluoromethyl)pyrimidin-2-yl]acetamide], with 25 nM. On the same count and under the same terms, the value for `O=C(CN1CC2(CC2)c2cc(Br)ccc2C1=O)Nc1ncc(C2CC2(F)F)cn1` (stereo not shown) [Example 309, 2-(6-bromo-1-oxospiro[3H-isoquinoline-4,1′-cyclopropane]-2-yl)-N-[5-(2,2-difluorocyclopropyl)pyrimidin-2-yl]acetamide] was 696 nM. As for `O=C(CN1CC2(CC2)c2c(ccc(OC(F)F)c2F)C1=O)Nc1ncc(F)cn1` [Example 310, 2-[6-(difluoromethoxy)-5-fluoro-1-oxospiro[3H-isoquinoline-4,1′-cyclopropane]-2-yl]-N-(5-fluoropyrimidin-2-yl)acetamide], the IC50 under setting [2] came to 1060 nM.

These data come from patent US20230416205A1, “COMPOUNDS, COMPOSITIONS, AND METHODS” (Denali Therapeutics Inc, priority 2020, published 2023).
